Reference: ChEMBL document CHEMBL5209569, “Membrane potential based assay for SLC6A8 using HEK-293 JumpIN SLC6A8 OE cells” (2022)

Molecular target: T1, Sodium- and chloride-dependent creatine transporter 1 (Homo sapiens, UniProt P48029)
T1 sequence (P48029 whole entry): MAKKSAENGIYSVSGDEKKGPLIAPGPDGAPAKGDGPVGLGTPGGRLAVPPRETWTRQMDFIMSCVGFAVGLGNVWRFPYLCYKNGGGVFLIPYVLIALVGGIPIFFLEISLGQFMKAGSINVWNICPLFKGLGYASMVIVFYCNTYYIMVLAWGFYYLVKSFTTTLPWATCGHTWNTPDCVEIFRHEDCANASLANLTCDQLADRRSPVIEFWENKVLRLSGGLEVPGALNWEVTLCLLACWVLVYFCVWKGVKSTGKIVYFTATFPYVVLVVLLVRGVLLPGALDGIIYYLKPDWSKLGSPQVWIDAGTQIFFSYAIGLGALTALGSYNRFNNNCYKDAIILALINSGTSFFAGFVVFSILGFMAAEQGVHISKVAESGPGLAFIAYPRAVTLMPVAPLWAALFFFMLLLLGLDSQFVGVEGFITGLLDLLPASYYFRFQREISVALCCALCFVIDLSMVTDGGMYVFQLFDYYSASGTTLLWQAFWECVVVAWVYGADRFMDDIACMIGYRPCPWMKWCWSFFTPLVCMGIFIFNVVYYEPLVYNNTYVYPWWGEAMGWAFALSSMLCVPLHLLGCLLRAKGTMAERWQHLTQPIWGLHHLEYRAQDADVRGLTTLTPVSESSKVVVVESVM
Assay: Substrate uptake by the Sodium- and Chloride-Dependent Creatine Transporter 1 (CRTR, SLC6A8) as assessed by the fluorescent FLIPR membrane potential dye in HEK-293 JumpIN-SLC6A8 cells (PubChem AID: 1794823)
Format: functional, cell-based, HEK293

EC50: 5 µM
Compound: CN(CC(=O)O)C(=N)N [CREATINE]
